Molecules are shown by their SMILES.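 Assay format: 96-well plates, 48-hour exposure. GI50 marks 50% less growth.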 Activity calls are given as the source filed them. No stated cut-off is given here; in the data, active = GI50 up to about 1.1 µM and inactive = higher.

Among the test systems are SK-MEL-28; T47D; CCRF-CEM; NCI-H23; SK-OV-3; NCI-H522; MDA-MB-231; HCT-116; TK-10; LOX IMVI; MDA-MB-435; SF-268; OVCAR-3; OVCAR-5; 786-0; SNB-75; SF-539; HL-60; ACHN; UO-31.
Assay in all cases: NCI tumour cell line growth inhibition, 48 h

On to `OCCSCC(O)Cn1cnc2c(O)nc(Nc3ccccc3)nc21` (stereo not drawn), for which the GI50 in the experiment with SK-MEL-28, in the experiment on T47D, in the experiment on CCRF-CEM, in the experiment on NCI-H23, in the experiment with SK-OV-3 and with NCI-H522 was > 100 µM (inactive) throughout. Moreover, the GI50 with MDA-MB-231, with HCT-116, in the experiment with TK-10, in the experiment on LOX IMVI, in the experiment on MDA-MB-435 and with SF-268 was > 100 µM (inactive) each time. The GI50 in the experiment with OVCAR-3, in the experiment on OVCAR-5, in the experiment on 786-0, in the experiment on SNB-75, with SF-539 and with HL-60 was > 100 µM (inactive) throughout. Besides, in the experiment on ACHN, the GI50 is > 100 µM (inactive).
Consider `COc1cc(OC)nc(NC(=O)NS(=O)(=O)c2cccc3ncn(C)c(=O)c23)n1`, for which the GI50 in the experiment with T47D, in the experiment with CCRF-CEM, with NCI-H23, in the experiment on UO-31, with SK-OV-3 and with NCI-H522 was > 100 µM (inactive) throughout. Moreover, the GI50 in the experiment on MDA-MB-231, in the experiment on HCT-116, in the experiment on TK-10, with LOX IMVI, in the experiment on MDA-MB-435 and in the experiment on SF-268 was > 100 µM (inactive) throughout. Besides, the GI50 with OVCAR-3 is > 100 µM (inactive); in the experiment with OVCAR-5, > 100 µM (inactive); in the experiment on 786-0, > 100 µM (inactive); with SNB-75, 41.3 µM (inactive); in the experiment with SF-539, > 100 µM (inactive); in the experiment with HL-60, > 100 µM (inactive). Further, the GI50 in the experiment on ACHN was > 100 µM (inactive).
For the molecule `C=C1CC2(CCCC3(CC(=C)C(=O)O3)C2(C)C)OC1=O` (stereo not drawn), the GI50 is 2.05 µM (inactive) in the experiment with SK-MEL-28; 3.33 µM (inactive) in the experiment on T47D; 0.437 µM (active) in the experiment on CCRF-CEM; 2.89 µM (inactive) with NCI-H23; 3.06 µM (inactive) with UO-31; 20.5 µM (inactive) in the experiment with SK-OV-3. The GI50 is 1.46 µM (inactive) in the experiment with NCI-H522; 4.95 µM (inactive) in the experiment with MDA-MB-231; 1.44 µM (inactive) in the experiment on HCT-116; 1.18 µM (inactive) in the experiment on TK-10; 1.69 µM (inactive) with LOX IMVI; 2.75 µM (inactive) in the experiment with MDA-MB-435. Further, the GI50 in the experiment with SF-268 was 19.2 µM (inactive); with OVCAR-3, 1.96 µM (inactive); with OVCAR-5 it was 1.58 µM (inactive); in the experiment with 786-0 it was 1.81 µM (inactive); in the experiment on SNB-75 it was 16.7 µM (inactive); in the experiment on SF-539, 3.26 µM (inactive). Besides, the GI50 with HL-60 was 2.4 µM (inactive); in the experiment with ACHN, 1.07 µM (active).
Turning to `CNc1ccc(Cl)cc1C(=O)N1CCC[C@H]1CO`, the GI50 with SK-MEL-28, with T47D, in the experiment on CCRF-CEM, with NCI-H23, in the experiment with UO-31 and in the experiment on SK-OV-3 was > 100 µM (inactive) throughout. Moreover, the GI50 in the experiment on NCI-H522, in the experiment on MDA-MB-231, in the experiment on HCT-116, with TK-10, in the experiment with LOX IMVI and in the experiment on MDA-MB-435 was > 100 µM (inactive) each time. Also, the GI50 with SF-268 is > 100 µM (inactive); with OVCAR-3, > 100 µM (inactive); in the experiment with OVCAR-5 it was > 100 µM (inactive); in the experiment with 786-0, > 100 µM (inactive); in the experiment on SNB-75 it was 99.3 µM (inactive); with SF-539, > 100 µM (inactive). Besides, the GI50 in the experiment with HL-60 and in the experiment on ACHN was > 100 µM (inactive) each time.

The record behind these values is ChEMBL document CHEMBL1201862, “PubChem BioAssay data set” (2004).
